According to US12552733B2, “Terpenophenolic compounds and their use” (Phytotherapeutix Ltd., priority 2020, dated 2026):

Columns and labels:
[1] = system: PTZ mouse model of seizures; assay: PTZ-induced seizures study; type: in vivo; conditions: 30 min pretreatment; for protection from clonic seizures (PTZ) vs vehicle-treated animals / protection from tonic hindlimb seizures (PTZ) vs vehicle-treated animals: test compounds 200 mg/kg IP, CBD 100 mg/kg IP, 60 min, PTZ 100 mg/kg i.p.
Description: Mice were acclimated to the procedure room for at least 30 minutes. Pentylenetetrazole (PTZ; SigmaAldrich) was formulated in water to a concentration of 20 mg/ml. Injections of PTZ were made at a volume of 5 mI/kg to produce a final dose of 100 mg/kg. PTZ injections were i.p. Diazepam was formulated at a concentration of 2 mg/mL and administered at volume of 10 mL/kg to produce a final dose of 20 mg/kg. Time to initial myoclonic and tonic hindlimb extensor response was measured. A 10-min maximum latency to seizure was imposed.
(§1) The data was expressed as mean+SEM. Statistical analysis using one-way ANOVA with post-hoc Fisher's LSD test was used to determine statistical significance compared to the vehicle-treated animals.
(§2) Animals received treatments according to Table 3.
as §2

[2] = PK study: plasma levels after i.p. administration, LC/MS/MS; type: in vivo, Mouse; conditions: 100 mg/kg i.p.; sampled at 30, 60, 120 min
Description: For testing of each compound, six CD-1 mice were divided into 2 groups of 3. Animals were administered test agents via i.p. route and blood collected at 30, 60 and 120 min, administration as outlined in Table 1. Blood samples were collected in EDTA-coated microfuge tubes, inverted and placed on an ice pack prior to centrifugation and storage at −70° C. Samples were extracted using an acetonitrile/protein precipitation method and levels of test agent analysed by LC/MS/MS.
Bioanalytical detection method was developed using an LC/MS/MS (ABI 5000 or 5500). Standard curves of the test agent were prepared in an appropriate biological matrix (plasma). Levels of test article was measured in plasma as per the developed method.
Levels were determined by extrapolating the concentration from a standard curve using linear regression analysis. Method development and bioanalysis was performed by a partner company, Keystone Bioanalytical (North Wales, PA, US).

[3] = system: MES mouse model of seizures; assay: Maximal Electroshock (MES) seizure study; type: in vivo; conditions: test compounds 200 mg/kg IP, 30 min pretreatment, CBD 100 mg/kg IP, 60 min, one-way ANOVA, Fisher's LSD
Description: Animals were administered vehicle, phenytoin, CBD or test compounds and gross behavioural observations were done for 30 minutes. Proparacaine hydrochloride ophthalmic solution (Butler AHS, Dublin, OH) was applied approximately 10 minutes prior to testing to numb the eyes. Thirty to sixty minutes after administration of vehicle,phenytoin, CBD or test compounds, 0.9% saline solution (sodium chloride in water) was applied to both eyes and electro-convulsions were produced by an alternating current delivered via corneal electrodes by a Rodent Shocker generator at a frequency of 60 Hz (Harvard Apparatus, Holliston, Mass.). Parameters for the ICR:CD1 mice were 0.2 s stimulus duration at an intensity of 25 mA. The criterion for seizure occurrence were presence of a tonic hind limb extension, defined as extension exceeding a 90-degree angle with the plane of the body. […] Any seizure activity (i.e. clonic seizures defined as rapid spasms or jerky movements of the limbs) prior to tonic hind limb seizure were recorded as presence of seizure (noted as 1-yes, 0-no). After seizure exhibition or 20-second timeout, mice were euthanized via cervical dislocation.
as §1
The results of the MES study are illustrated in FIG. 4: MES: Latency in seconds for seizures to occur in mice. Animals received treatments according to Table 2. […] Data are expressed as the average ±SEM. Data were analysed by One-way ANOVA, followed by a post-hoc Fisher's LSD test. ***P<0.001, *P<0.05, n=1 PTZ Study

Question: With `C=C(C)[C@@H]1CCC(C)=C[C@H]1c1c(O)cc(CCc2ccccc2)cc1O` [(−)-trans-CBD-PET, (1′R,2′R)-5′-methyl-4-phenethyl-2′-(prop-1-ene-2-yl)-1′,2′,3′,4′-tetrahydro-[1,1′-biphenyl]-2,6-diol] as the compound, how does the “protection from clonic seizures (PTZ) vs vehicle-treated animals” value ([1]; listed as (−)-trans CBD-PET) read?
Answer: The value was “significant protection from clonic seizures”.

Question: And the “protection from tonic hindlimb seizures (PTZ) vs vehicle-treated animals” value ([1]; listed as (−)-trans CBD-PET)?
Answer: Its value is “significant effect, protecting from tonic hindlimb seizures”.

Question: What about the “protection from clonic seizures (PTZ) vs vehicle-treated animals” value ([1]; listed as CBD-PET) of the same compound?
Answer: Its value is “showing activity against both clonic and tonic seizures”.

Question: And the “protection from tonic hindlimb seizures (PTZ) vs vehicle-treated animals” value ([1]; listed as CBD-PET)?
Answer: Its value is “showing activity against both clonic and tonic seizures”.

Question: What about the “time at which maximal concentration in plasma was achieved after the injection” value [2] of the same compound?
Answer: The value was 30 min.

Question: Which “protection from the seizures (PTZ; clonic and tonic hindlimb, FIGS. 5 and 6)” value ([1]; PO, p<0.05) does the source give for `CN1C(=O)CN=C(c2ccccc2)c2cc(Cl)ccc21` [diazepam, reference compound] here?
Answer: Its value is 100%.

Question: For `C=C(C)[C@@H]1CCC(C)=C[C@H]1c1c(O)cc(CCc2ccc(O)cc2)cc1O` [(−)-trans-CBD-PET-OH, (1′R,2′R)-4-(4-hydroxyphenethyl)-5′-methyl-2′-(prop-1-ene-2-yl)-1′,2′,3′,4′-tetrahydro-[1,1′-biphenyl]-2,6-diol], which “effect in the MES study (latency to tonic hindlimb seizure) vs vehicle” value (“effect in the MES study … vs vehicle” for short) ([3]; listed as (−)-trans CBD-PET-OH) is on record?
Answer: The value was “significantly different from vehicle”.

Question: And the “effect in the MES study … vs vehicle” value ([3]; listed as CBD-PET-OH)?
Answer: Its value is “effective”.

Question: What about the “protection from tonic hindlimb seizures (PTZ) vs vehicle-treated animals” value ([1]; listed as (−)-trans CBD-PET-OH) of the same compound?
Answer: The value was “significant effect, protecting from tonic hindlimb seizures”.

Question: What about the “protection from tonic hindlimb seizures (PTZ) vs vehicle-treated animals” value ([1]; listed as CBD-PET-OH) of the same compound?
Answer: The value was “particularly effective against tonic seizures”.

Question: And the “time at which maximal concentration in plasma was achieved after the injection” value [2]?
Answer: Its value is 30 min.

Question: For `C=C(C)[C@@H]1CCC(C)=C[C@H]1c1c(O)cc(CCCCC)cc1O` [Cannabidiol, reference compound], which “effect in the MES study … vs vehicle” value [3] is on record?
Answer: The value was “did not produce a significant effect”.

Question: And the “protection from clonic seizures (PTZ) vs vehicle-treated animals” value [1]?
Answer: The value was “did not produce a significant effect”.

Question: What about the “protection from tonic hindlimb seizures (PTZ) vs vehicle-treated animals” value [1] of the same compound?
Answer: Its value is “did not produce a significant effect”.
